Test results published in patent US20180008587A1, “THIOHYDANTOIN ANDROGEN RECEPTOR ANTAGONISTS FOR THE TREATMENT OF CANCER” (Jaressen Pharmaceutica NV, priority 2016, published 2018).
Changes are numbered by the printed parent chain. Read-outs that look alike come from different tables or passages of the source.

Legend:
Assay type in all cases: cell-based
[1] = target: T1, wild-type Androgen Receptor (AR-wt) (Homo sapiens, UniProt P10275); test: LNCaP-AR-wt ANT reporter assay (ARE firefly luciferase, antagonist mode); conditions: for IC50: antagonist mode, 400 pM R-1881 challenge, −Log10(IC50 [Molar]), read-out: LNCaP-AR-wt ANT pIC50 (converted); for Emax: read-out: LNCaP-AR-wt ANT MAX % Inh
T1 construct: expressed in transfected cells; host or cells: LNCaP (LNCaP AR (cs))
T1 sequence (P10275 1-920): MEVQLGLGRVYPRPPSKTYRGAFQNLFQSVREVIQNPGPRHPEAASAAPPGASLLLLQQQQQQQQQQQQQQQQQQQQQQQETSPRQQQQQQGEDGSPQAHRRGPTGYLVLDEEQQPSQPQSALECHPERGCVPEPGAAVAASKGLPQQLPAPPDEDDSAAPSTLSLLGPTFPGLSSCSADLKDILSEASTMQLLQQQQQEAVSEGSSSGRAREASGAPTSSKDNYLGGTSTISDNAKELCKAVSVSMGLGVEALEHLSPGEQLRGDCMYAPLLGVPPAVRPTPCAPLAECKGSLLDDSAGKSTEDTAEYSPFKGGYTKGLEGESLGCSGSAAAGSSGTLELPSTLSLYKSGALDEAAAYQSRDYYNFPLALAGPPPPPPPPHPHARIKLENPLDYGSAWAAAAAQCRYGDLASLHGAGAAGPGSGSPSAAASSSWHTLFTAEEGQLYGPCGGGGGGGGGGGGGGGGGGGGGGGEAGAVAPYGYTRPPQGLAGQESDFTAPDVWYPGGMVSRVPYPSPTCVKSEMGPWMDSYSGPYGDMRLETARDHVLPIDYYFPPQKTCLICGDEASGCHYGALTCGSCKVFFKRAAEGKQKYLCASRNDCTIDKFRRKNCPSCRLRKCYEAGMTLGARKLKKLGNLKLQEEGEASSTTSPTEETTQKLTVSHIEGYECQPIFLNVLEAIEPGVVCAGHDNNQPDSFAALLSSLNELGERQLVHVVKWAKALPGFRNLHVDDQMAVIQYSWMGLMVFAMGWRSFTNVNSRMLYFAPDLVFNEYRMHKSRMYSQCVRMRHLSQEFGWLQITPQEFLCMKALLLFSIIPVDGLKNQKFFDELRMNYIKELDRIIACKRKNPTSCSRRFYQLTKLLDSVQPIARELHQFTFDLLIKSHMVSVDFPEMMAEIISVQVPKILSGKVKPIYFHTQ
Experimental: (§1) A stable pooled-population cell line was generated using puromycin (Life Technologies) selection at 1:10,000 v/v. The protocol below was used for both cell lines and for testing of the compounds of Formula (I) of the present invention.
(§2) LNCaP cells were grown to about 80% confluence, media removed and cells rinsed in Hank's balanced salt solution prior to separation from the plate with 0.05% Trypsin EDTA. Cells were lifted and trypsin negated in complete CSS (charcoal stripped serum) culture media. […] Agonist challenge was at 400 pM for WT assay and 600 pM for F876L assay. Plates containing cells and compounds herein were incubated for a further 20-24 hours at 37° C., 5% CO2 before addition of 40 μL/well of Steady-Glo Luciferase Assay System Reagent (Promega# E2520). After 1 h, plates were read for luminescence on a BMG Pherastar.
(§3) EC/IC50 calculations were achieved utilizing calculated RLU data and data fitting macros. Data were fit using least-squares methods to the following formula: […]

[2] = target: T1, wild-type Androgen Receptor (AR-wt); test: LNCaP-AR-wt AG reporter assay (ARE firefly luciferase, agonist mode); conditions: for Emax: read-out: LNCaP-AR-wt AG MAX % Stim
Experimental: as §1, §2, §3

[3] = target: T2, F876L mutant Androgen Receptor (AR-F876L) (Homo sapiens, UniProt P10275, F877L); test: LNCaP-AR-F876L ANT reporter assay (ARE firefly luciferase, antagonist mode); conditions: for Emax: read-out: LNCaP-AR-F876L ANT MAX % Inh; for IC50: read-out: LNCaP-AR-F876L ANT pIC50 (converted)
T2 construct: expressed in transfected cells; host or cells: LNCaP (LNCaP F876L)
T2 sequence (P10275 1-920 F877L): T1 sequence (P10275 1-920) with F877L
Experimental: as §1, §2, §3

[4] = target: T2, F876L mutant Androgen Receptor (AR-F876L); test: LNCaP-AR-F876L AG reporter assay (ARE firefly luciferase, agonist mode); conditions: for Emax: read-out: LNCaP-AR-F876L AG MAX % Stim
Experimental: as §1, §2, §3

[5] = maximum % inhibition of R1881 control response over tested concentration range
[6] = agonist mode, −Log10(EC50 [Molar]), read-out: LNCaP-AR-wt AG pEC50 (converted)
[7] = maximum % stimulation (agonist response) over tested concentration range
[8] = agonist mode, −Log10(EC50 [Molar]), read-out: LNCaP-AR-F876L AG pEC50 (converted)

IC50 [1]	Emax [1, 5]	EC50 [2, 6]	Emax [2, 7]	Emax [3, 5]	IC50 [3]	EC50 [4, 8]	Emax [4, 7]	Structure (SMILES)	Emax [2]	Emax [4]	Emax [1]	EC50 [2]	Emax [3]	EC50 [4]
195 nM	100%	> 15100 nM	1.3%	100%	145 nM	> 15100 nM	2.6%	Cc1ccc(N2C(=S)N(c3cnc(C#N)c(C(F)(F)F)c3)C(=O)C2(C)C)cc1 [Cpd 110, 5-[4,4-dimethyl-5-oxo-3-(p-tolyl)-2-thioxo-imidazolidin-1-yl]-3-(trifluoromethyl)pyridine-2-carbonitrile]						
389 nM	102%	> 15100 nM		101%	100 nM	> 15100 nM		Cc1ccc(N2C(=S)N(c3cnc(C#N)c(C)c3)C(=O)C23CCC3)cc1 [Cpd 29, 3-methyl-5-[5-oxo-8-(p-tolyl)-7-thioxo-6,8-diazaspiro[3.4]octan-6-yl]pyridine-2-carbonitrile]	0.7%	0.3%				
2450 nM	99.5%	> 15100 nM	0%	99.7%	724 nM	> 15100 nM	0.1%	N#Cc1ncc(N2C(=O)C3(CCC3)N(c3ccc(C(=O)NCCN4CCOCC4)c(F)c3)C2=S)cc1C(F)(F)F [Cpd 22, 4-[6-[6-cyano-5-(trifluoromethyl)-3-pyridyl]-5-oxo-7-thioxo-6,8-diazaspiro[3.4]octan-8-yl]-2-fluoro-N-(2-morpholinoethyl)benzamide]						
363 nM	103%	> 15100 nM	0%	95.5%	437 nM	> 15100 nM	1.2%	CCOC(=O)CCCNC(=O)c1ccc(N2C(=S)N(c3cnc(C#N)c(C(F)(F)F)c3)C(=O)C23CCC3)cc1F [Cpd 82, ethyl 4-[[4-[6-[6-cyano-5-(trifluoromethyl)-3-pyridyl]-5-oxo-7-thioxo-6,8-diazaspiro[3.4]octan-8-yl]-2-fluoro-benzoyl]amino]butanoate]						
1260 nM	99.4%	> 15100 nM	0.9%	99.6%	347 nM	> 15100 nM	0%	CC(C)NC(=O)c1ccc(N2C(=S)N(c3cnc(C#N)c(C(F)(F)F)c3)C(=O)C23CCC3)cc1F [Cpd 23, 4-[6-[6-cyano-5-(trifluoromethyl)-3-pyridyl]-5-oxo-7-thioxo-6,8-diazaspiro[3.4]octan-8-yl]-2-fluoro-N-isopropyl-benzamide]						
1450 nM	97.8%	> 15100 nM	1.9%	91.6%	851 nM	> 15100 nM	1%	N#Cc1ncc(N2C(=O)C3(CCC3)N(c3ccc(C(=O)NCc4ccco4)c(F)c3)C2=S)cc1C(F)(F)F [Cpd 76, 4-[6-[6-cyano-5-(trifluoromethyl)-3-pyridyl]-5-oxo-7-thioxo-6,8-diazaspiro[3.4]octan-8-yl]-2-fluoro-N-(2-furylmethyl)benzamide]						
245 nM	100%	> 15100 nM	0.3%			> 15100 nM	0%	N#Cc1ncc(N2C(=O)C3(CCC3)N(c3ccc(C(=O)NCCc4ccccc4)c(F)c3)C2=S)cc1C(F)(F)F [Cpd 42, 4-[6-[6-cyano-5-(trifluoromethyl)-3-pyridyl]-5-oxo-7-thioxo-6,8-diazaspiro[3.4]octan-8-yl]-2-fluoro-N-phenethyl-benzamide]						

The next lines start with the compound.

Structure (SMILES)	IC50 [1]	Emax [1, 5]	EC50 [2, 6]	Emax [2, 7]	Emax [3, 5]	IC50 [3]	EC50 [4, 8]	Emax [4, 7]	Emax [2]	Emax [4]	Emax [1]	EC50 [2]	Emax [3]	EC50 [4]
N#Cc1ncc(N2C(=O)C3(CCC3)N(c3ccc(C(=O)NCCCc4ccccc4)c(F)c3)C2=S)cc1C(F)(F)F [Cpd 57, 4-[6-[6-cyano-5-(trifluoromethyl)-3-pyridyl]-5-oxo-7-thioxo-6,8-diazaspiro[3.4]octan-8-yl]-2-fluoro-N-(3-phenylpropyl)benzamide]	324 nM					479 nM			0%	0.5%	99%	> 15100 nM	95.5%	> 15100 nM
C#CCNC(=O)c1ccc(N2C(=S)N(c3cnc(C#N)c(C(F)(F)F)c3)C(=O)C23CCC3)cc1F [Cpd 111, 4-[6-[6-cyano-5-(trifluoromethyl)-3-pyridyl]-5-oxo-7-thioxo-6,8-diazaspiro[3.4]octan-8-yl]-2-fluoro-N-prop-2-ynyl-benzamide]	407 nM					525 nM			0.5%	2.7%	102%	> 15100 nM	94.1%	> 15100 nM
N#Cc1ncc(N2C(=O)C3(CCC3)N(c3ccc(Oc4ccccn4)cc3)C2=S)cc1C(F)(F)F [Cpd 103, 5-[5-oxo-8-[4-(2-pyridyloxy)phenyl]-7-thioxo-6,8-diazaspiro[3.4]octan-6-yl]-3-(trifluoromethyl)pyridine-2-carbonitrile]	562 nM					107 nM			4%	2%	29%	> 15100 nM	64.9%	> 15100 nM
Cc1cc(N2C(=O)C3(CCC3)N(c3ccc(OC4CCOCC4)cc3)C2=S)cnc1C#N [Cpd 87, 3-methyl-5-[5-oxo-8-(4-tetrahydropyran-4-yloxyphenyl)-7-thioxo-6,8-diazaspiro[3.4]octan-6-yl]pyridine-2-carbonitrile]						288 nM			1.1%	0.9%		> 15100 nM	99.7%	> 15100 nM
